Where a name gives a salt, the structure may show the parent alone. Read-outs that look alike come from different tables or passages of the source.
Biological target: T1, LmjIPCS (inositol phosphorylceramide synthase from L. major) (Leishmania major, UniProt E9AFX2)
T1 sequence (E9AFX2 1-338): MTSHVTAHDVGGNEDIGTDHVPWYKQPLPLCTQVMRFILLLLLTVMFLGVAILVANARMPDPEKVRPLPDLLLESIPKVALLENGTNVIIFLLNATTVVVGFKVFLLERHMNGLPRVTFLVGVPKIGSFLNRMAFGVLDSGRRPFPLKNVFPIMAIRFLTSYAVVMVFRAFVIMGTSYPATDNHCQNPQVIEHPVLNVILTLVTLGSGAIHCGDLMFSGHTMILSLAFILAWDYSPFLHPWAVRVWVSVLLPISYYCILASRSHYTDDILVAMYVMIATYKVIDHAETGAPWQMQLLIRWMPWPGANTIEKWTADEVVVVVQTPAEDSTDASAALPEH
Assay: biochemical
Assay type: biochemical
Parameters: inhibition: dose or concentration left out as unconfirmed
Settings: for inhibition: read-out: inhibition LmjIPCS; for inhibition at 20000 µM: read-out: 20mM inhibition LmjIPCS

[1] = NINDS set screen, single concentration printed as 20mM
[2] = screening of NINDS set, sheet Screen 1

C[C@@]12C[C@@]3(O)O[C@@H](O1)[C@]1(COC(=O)c4ccccc4)[C@H]3C[C@@]12O[C@@H]1O[C@H](CO)[C@@H](O)[C@H](O)[C@H]1O [PEONIFLORIN]
inhibition: 12%

O=C1CC[C@@]2(O)[C@H]3Cc4ccc(O)c5c4[C@@]2(CCN3CC2CC2)[C@H]1O5 [NALTREXONE]
inhibition: 8%

Nc1ccc(S(=O)(=O)Nc2ccnn2-c2ccccc2)cc1 [SULFAPHENAZOLE]
inhibition (NINDS set screen): 0.104%

COc1ccc(CCN(C)CCCC(C#N)(c2ccc(OC)c(OC)c2)C(C)C)cc1OC (stereo not shown)
20mM inhibition LmjIPCS: 42%

C=C1CC[C@H](O)C/C1=C/C=C1\CCC[C@]2(C)[C@@H]([C@H](C)/C=C/[C@H](C)C(C)C)CC[C@@H]12 [ERGOCALCIFEROL]
inhibition: -1.77%

Cc1c(NC(C)C)c(=O)n(-c2ccccc2)n1C [RAMIFENAZONE]
inhibition (NINDS set screen): 0.419%

CC(=O)NC(C(=O)O)C(C)(C)SN=O (stereo not shown)
inhibition at 20000 µM: 9%

CC[C@H]1[C@@H]2C[C@H]3[C@@H]4N(C)c5ccccc5[C@]45C[C@@H]([C@H]2[C@H]5O)N3[C@@H]1O [AJMALINE]
inhibition at 20000 µM: 23%

CC[C@H]1CN2CCc3cc(OC)c(OC)cc3[C@@H]2C[C@@H]1C[C@H]1NCCc2cc(OC)c(OC)cc21 [EMETINE]
inhibition at 20000 µM: 11%

COC(=O)C1=CCCN(C)C1 [ARECOLINE]
inhibition at 20000 µM: -3.74%

C[C@@H]1C[C@H]2[C@@H]3CCC4=CC(=O)C=C[C@]4(C)[C@@]3(F)[C@@H](O)C[C@]2(C)[C@@]1(O)C(=O)CO [DEXAMETHASONE]
20mM inhibition LmjIPCS: 44%
inhibition: -4%

CCCCCCc1ccc(O)cc1O [HEXYLRESORCINOL]
20mM inhibition LmjIPCS [1]: 47%

CCOc1ccc(NC(C)=O)cc1 [PHENACETIN]
20mM inhibition LmjIPCS: 38%

COc1ccc2c(c1)CC[C@@H]1[C@@H]2CC[C@]2(C)[C@@H](O)CC[C@@H]12 [ESTRADIOL METHYL ETHER]
20mM inhibition LmjIPCS: 40%

CC(=O)Oc1ccccc1C(=O)Oc1ccccc1C(=O)O [DIPLOSALSALATE]
20mM inhibition LmjIPCS [1]: 67%

COc1cc(NS(=O)(=O)c2ccc(N)cc2)nc(OC)n1 [SULFADIMETHOXINE]
inhibition: 15%

CC(=O)N[C@@H](CC(=O)O)C(=O)O [N-ACET[…]]
inhibition at 20000 µM: -3%

CC(C)[N+]1(C)[C@@H]2CC[C@H]1C[C@@H](OC(=O)C(CO)c1ccccc1)C2 (stereo partly shown) [IPRATROPIUM BROMIDE]
inhibition at 20000 µM: -7%

COc1ccc(OC)c(C(O)C(C)N)c1 (stereo not shown) [METHOXAMINE]
inhibition at 20000 µM: 24%

NCCCCN=C(N)N [AGMATINE SULFATE]
inhibition at 20000 µM: 24%

Cc1ccccc1N1C(=O)c2cc(S(N)(=O)=O)c(Cl)cc2NC1C (stereo not shown) [METOLAZONE]
20mM inhibition LmjIPCS: 50%

O=C1C(O)=C([C@H]2CC[C@H](c3ccc(Cl)cc3)CC2)C(=O)c2ccccc21 [ATOVAQUONE]
20mM inhibition LmjIPCS [1]: 46%

Cc1cc(C(C)(C)CC(C)(C)C)ccc1OCCOCC[N+](C)(C)Cc1ccccc1.[Cl-] [METHYLBENZETHONIUM CHLORIDE]
20mM inhibition LmjIPCS (NINDS set screen, compound at 20mM (so in the source)): 12%

COc1ccc2c(c1)c(CC(=O)O)c(C)n2C(=O)c1ccc(Cl)cc1 [INDOMETHACIN]
inhibition: -3.42%

CC(=O)Oc1ccc(Cl)c2cccnc12 [CHLOROACETOXYQUINOLINE]
inhibition at 20000 µM: 19%

Cn1c([N+](=O)[O-])cnc1COC(N)=O [RONIDAZOLE]
inhibition (NINDS set screen): 0.0172%

O=c1c(O)c(-c2ccc(O)cc2O)oc2cc(O)cc(O)c12 [MORIN]
inhibition at 20000 µM: 4%

CC1(C)S[C@@H]2[C@H](NC(=O)C(C(=O)O)c3ccccc3)C(=O)N2[C@H]1C(=O)O (stereo partly shown) [CARBENICILLIN]
20mM inhibition LmjIPCS: 52%

O=C(O)Cc1ccccc1Nc1c(Cl)cccc1Cl [DICLOFENAC]
inhibition: -6.5%

CN[C@@H]1[C@@H](O[C@H]2O[C@H](CO)[C@@H](N)[C@H](O)[C@H]2O)OC2C[C@@H](N)[C@@H](O[C@H]3[C@H](O)[C@@H](O)[C@H](N)C[C@@H]3N)OC2[C@@H]1O (stereo partly shown) [APRAMYCIN]
inhibition at 20000 µM: 0.0509%

CN(Cc1cnc2nc(N)nc(N)c2n1)c1ccc(C(=O)N[C@@H](CCC(=O)O)C(=O)O)cc1 [METHOTREXATE]
inhibition: 8%

CN1CCC[C@H]1c1cccnc1 [NICOTINE]
inhibition at 20000 µM: 10%

COc1ccc(Cc2nccc3cc(OC)c(OC)cc23)cc1OC [PAPAVERINE]
inhibition at 20000 µM: 21%

COc1cc2c(c(OC)c1OC)-c1ccc(=O)c(O)cc1[C@@H](NC(C)=O)CC2 [COLCHICEINE]
inhibition at 20000 µM: 9%

C[C@]12CCC3c4ccc(OC(=O)CCC(=O)O)cc4CCC3C1CCC2=O (stereo partly shown) [ESTRONE HEMISUCCINATE]
20mM inhibition LmjIPCS: 12%

CC(=O)[C@@]1(O)CC[C@H]2[C@@H]3C[C@H](C)C4=CC(=O)C=C[C@]4(C)[C@@]3(F)[C@@H](O)C[C@@]21C [FLUOROMETHOLONE]
inhibition at 20000 µM: 3%

C[C@H](CCC(=O)[O-])[C@H]1CC[C@H]2[C@@H]3C(=O)C[C@@H]4CC(=O)CC[C@]4(C)[C@H]3CC(=O)[C@]12C.[Na+] [SODIUM DEHYDROCHOLATE]
20mM inhibition LmjIPCS: -6.4%

O=c1oc2cc(O)ccc2s1 [TIOXOLONE]
inhibition [2]: 3%

CCCC(=O)Nc1ccc(OCC(O)CNC(C)C)c(C(C)=O)c1 (stereo not shown) [ACEBUTOLOL]
inhibition: -2.11%

CC(=O)O[C@]1(C(C)=O)CC[C@H]2[C@@H]3C[C@H](C)C4=CC(=O)CC[C@]4(C)[C@H]3CC[C@@]21C [MEDROXYPROGESTERONE ACETATE]
inhibition (NINDS set screen): 17%

Cc1noc(NS(=O)(=O)c2ccc(N)cc2)c1C [SULFISOXAZOLE]
inhibition: 20%

CN(C)CCC(c1ccccc1)c1ccccn1 (stereo not shown) [PHENIRAMINE]
inhibition (NINDS set screen): -1%

C[C@]12CC[C@@H]3c4ccc(O)cc4CC[C@H]3[C@@H]1CCC2=O [ESTRONE]
inhibition at 20000 µM: 1.15%

CCCCNc1ccc(C(=O)OCCN(C)C)cc1 [TETRACAINE]
inhibition (NINDS set screen): 18%

CC(=O)OCC(=O)[C@@]1(O)[C@H](OC(C)=O)C[C@H]2[C@@H]3CCC4=CC(=O)C=C[C@]4(C)[C@@]3(F)[C@@H](O)C[C@@]21C [TRIAMCINOLONE DIACETATE]
inhibition at 20000 µM: 10%

CC[C@@H](C(=O)[C@@H](C)[C@@H](O)[C@H](C)[C@@H]1O[C@@H]([C@@H](CC)C(=O)O)CC[C@@H]1C)[C@H]1O[C@]2(C=C[C@@H](O)[C@]3(CC[C@@](C)([C@H]4CC[C@](O)(CC)[C@H](C)O4)O3)O2)[C@H](C)C[C@@H]1C [SALINOMYCIN]
inhibition at 20000 µM: 29%

NC(=O)N1c2ccccc2CC(=O)c2ccccc21 [OXCARBAZEPINE]
inhibition: -4%

NC(N)=Nc1nc(CSCCC(N)=NS(N)(=O)=O)cs1 [FAMOTIDINE]
inhibition at 20000 µM: 14%

COC(=O)Nc1nc2ccc(C(=O)c3ccccc3)cc2[nH]1 [MEBENDAZOLE]
inhibition: 18%

CC1(C)NC(=O)N(c2ccc([N+](=O)[O-])c(C(F)(F)F)c2)C1=O [NILUTAMIDE]
inhibition at 20000 µM: 4%

CC(Cc1cccc(C(F)(F)F)c1)NCCOC(=O)c1ccccc1 (stereo not shown) [BENFLUOREX]
20mM inhibition LmjIPCS: 65%

COc1cc([C@@H]2c3cc4c(c(O)c3C[C@H]3COC(=O)[C@@H]32)OCO4)cc(OC)c1OC [beta-PELTATIN]
inhibition at 20000 µM: -1.86%

Cc1oncc1C(=O)Nc1ccc(C(F)(F)F)cc1 [LEFUNOMIDE]
20mM inhibition LmjIPCS: 10%

O=C1NS(=O)(=O)c2ccccc21 [SACCHARIN]
inhibition at 20000 µM: 3.67%

CC(=O)O[C@H]1C[C@@]2(C)[C@@H](C[C@@H](O)[C@H]3[C@@]4(C)CC[C@@H](O)[C@@H](C)[C@@H]4CC[C@@]32C)/C1=C(\CCC=C(C)C)C(=O)O [FUSIDIC ACID]
inhibition: 5.47%

Cc1cccc(Nc2ccccc2C(=O)O)c1C [MEFENAMIC ACID]
inhibition (NINDS set screen): -9%

CCCCc1nc(Cl)c(CO)n1Cc1ccc(-c2ccccc2-c2nn[nH]n2)cc1 [LOSARTAN]
inhibition: -2.81%

CC(COc1ccccc1)N(CCCl)Cc1ccccc1 (stereo not shown) [PHENOXYBENZAMINE]
inhibition at 20000 µM: 31%

O=C(CC(=O)c1ccccc1)c1ccccc1 [DIBENZOYLMETHANE]
20mM inhibition LmjIPCS: 44%

CCOC(=O)[C@H](CCc1ccccc1)N[C@H]1CCc2ccccc2N(CC(=O)O)C1=O [BENAZEPRIL]
inhibition at 20000 µM: -0.0339%

O=C(O)c1ccc(S(=O)(=O)N(Cl)Cl)cc1 [HALAZONE]
inhibition [2]: 10%

C=C1c2c(Cl)ccc(O)c2C(=O)C2=C(O)[C@]3(O)C(=O)C(C(N)=O)=C(O)[C@@H](N(C)C)[C@@H]3[C@@H](O)[C@H]12 [MECLOCYCLINE]
20mM inhibition LmjIPCS [1]: 67%

O=C(CCc1ccc(O)cc1)c1c(O)cc(O)cc1O[C@@H]1O[C@H](CO)[C@@H](O)[C@H](O)[C@H]1O [PHLORIDZIN]
inhibition (NINDS set screen): 15%

O=c1cccc2n1C[C@@H]1CNC[C@H]2C1 [CYTISINE]
inhibition at 20000 µM: 9%

O=C(O)c1cc(O)c2c(c1)[C@H]([C@H]1c3cc(C(=O)O)cc(O)c3C(=O)c3c(O[C@@H]4O[C@H](CO)[C@@H](O)[C@H](O)[C@H]4O)cccc31)c1cccc(O[C@@H]3O[C@H](CO)[C@@H](O)[C@H](O)[C@H]3O)c1C2=O [SENNOSIDE A]
20mM inhibition LmjIPCS: 62%

C[C@]12CC[C@@H]3c4ccc(O)cc4CC[C@H]3[C@@H]1CC[C@@H]2O [ESTRADIOL]
inhibition at 20000 µM: -5.65%

COc1cc2c(cc1OC)-c1cc3ccc(OC)c(OC)c3c[n+]1CC2 [PALMATINE CHLORIDE]
inhibition: 16%

CCC1(c2ccc(N)cc2)CCC(=O)NC1=O (stereo not shown) [AMINOGLUTETHIMIDE]
20mM inhibition LmjIPCS: 56%

NCCCC[C@H](N[C@@H](CCc1ccccc1)C(=O)O)C(=O)N1CCC[C@H]1C(=O)O [LISINOPRIL]
inhibition: 6%

Oc1ncnc2[nH]ncc12 [ALLOPURINOL]
20mM inhibition LmjIPCS: 56%

CCN1CCCC1CNC(=O)c1cc(S(N)(=O)=O)ccc1OC (stereo not shown) [SULPIRIDE]
20mM inhibition LmjIPCS: 43%

CN(C)CCOC(c1ccc(Cl)cc1)c1ccccn1 (stereo not shown) [CARBINOXAMINE]
20mM inhibition LmjIPCS [1]: 36%
